Experiments:
[1] = test system: ovalbumin (OVA)-induced asthma; assay: Mouse model of ovalbumin (OVA)-induced asthma (Penh, eosinophil infiltrate in BALF); assay type: in vivo; conditions: for decrease of eosinophil infiltration in BAL: three oral doses of 10 mg/kg at 48 h, 24 h, and 1 h prior to assessment
Method: A mouse model of ovalbumin (OVA)-induced asthma was used to screen GSNOR inhibitors for efficacy against methacholine (MCh)-induced bronchoconstriction/airway hyper-responsiveness. This is a widely used and well characterized model that presents with an acute, allergic asthma phenotype with similarities to human asthma. Efficacy of GSNOR inhibitors was assessed using a protocol in which GSNOR inhibitors were administered after OVA sensitization and airway challenge, and prior to challenge with MCh. Bronchoconstriction in response to challenge with increasing doses of MCh was assessed using whole body plethysmography (Penh; Buxco). The amount of eosinophil infiltrate into the bronchoaveolar lavage fluid (BALF) was also determined as a measure of lung inflammation. The effects of GSNOR inhibitors were compared to vehicles and to Combivent (inhaled; IH) as the positive control.
OVA (500 μg/ml) in PBS was mixed with equal volumes of 10% (w/v) aluminum potassium sulfate in distilled water and incubated for 60 min. at room temperature after adjustment to pH 6.5 using 10 N NaOH. After centrifugation at 750×g for 5 min, the OVA/alum pellet was resuspended to the original volume in distilled water. Mice received an intraperitoneal (IP) injection of 100 μg OVA (0.2 mL of 500 μg/mL in normal saline) complexed with alum on day 0. Mice were anesthetized by IP injection of a 0.2-mL mixture of ketamine and xylazine (0.44 and 6.3 mg/mL, respectively) in normal saline and were placed on a board in the supine position. Two hundred fifty micrograms (100 μl of a 2.5 mg/ml) of OVA (on day 8) and 125 μg (50 μl of 2.5 mg/ml) OVA (on days 15, 18, and 21) were placed on the back of the tongue of each animal.
In vivo airway responsiveness to methacholine was measured 24 h after the last OVA challenge in conscious, freely moving, spontaneously breathing mice with whole body plethysmography using a Buxco chamber (Wilmington, N.C.). Mice were challenged with aerosolized saline or increasing doses of methacholine (5, 20, and 50 mg/mL) generated by an ultrasonic nebulizer for 2 min. The degree of bronchoconstriction was expressed as enhanced pause (Penh), a calculated dimensionless value, which correlates with the measurement of airway resistance, impedance, and intrapleural pressure in the same mouse. Penh readings were taken and averaged for 4 min. after each nebulization challenge. Penh is calculated as follows: Penh=[(Te/Tr−1)×(PEF/PIF)], where Te is expiration time, Tr is relaxation time, PEF is peak expiratory flow, and PIF is peak inspiratory flow×0.67 coefficient. The time for the box pressure to change from a maximum to a user-defined percentage of the maximum represents the relaxation time. The Tr measurement begins at the maximum box pressure and ends at 40%.
After measurement of airway hyper-reactivity, the mice were exsanguinated by cardiac puncture, and then BALF was collected from either both lungs or from the right lung after tying off the left lung at the mainstem bronchus. Total BALF cells were counted from a 0.05 mL aliquot, and the remaining fluid was centrifuged at 200×g for 10 min at 4° C. Cell pellets were resuspended in saline containing 10% BSA with smears made on glass slides. Eosinophils were stained for 5 min. with 0.05% aqueous eosin and 5% acetone in distilled water, rinsed with distilled water, and counterstained with 0.07% methylene blue. Alternatively, eosinophils and other leukocytes were stained with DiffQuik.
GSNOR inhibitors were reconstituted in phosphate buffered saline (PBS), pH 7.4, or 0.5% w/v carboxy methylcellulose at concentrations ranging from 0.00005 to 3 mg/mL. GSNOR inhibitors were administered to mice (10 mL/kg) as a single dose or multiple dose either intravenously (IV) or orally via gavage. Dosing was performed from 30 min. to 72 h prior to MCh challenge. Effects of GSNOR inhibitors were compared to vehicle dosed in the same manner.
Combivent was used as the positive control in all studies. […]

[2] = Mouse pharmacokinetic (PK) study; assay type: in vivo; conditions: male, BALB/c, plasma, po, 10 mg/kg, male BALB/c mice, 2 mg/kg IV, 10 mg/kg PO, read-out: oral bioavailability (% F)
Source text: The mouse was used to determine the pharmacokinetics of compounds of the invention. This species is widely used to assess the bioavailability of compounds by administering both oral (PO) and intravenous (IV) test articles. Efficacy of the compounds of the invention was compared by assessing plasma exposure in male BALB/c mice either via IV or PO administration at the times of peak activity.
Compounds of the invention were reconstituted in a phosphate buffered saline (PBS)/10% Solutol (HS 15) clear solution resulting in a concentration of 0.2 mg/mL and administered to mice (2 mg/kg) as a single IV dose. Animals were dosed via the lateral tail vein. Blood samples were collected at designated time points (0.083, 0.25, 0.5, 1, 2, 4, 8, 16, 24 hours) by cardiac puncture under isoflurane anesthesia (up to 1 mL blood per animal). The blood was collected into tubes containing Li-Heparin. The blood samples were kept on ice until centrifugation within approximately 30 minutes of collection. The plasma was transferred into labeled polypropylene tubes and frozen at −70° C. until analyzed by LC/MS/MS.
The compounds of the invention were reconstituted in 40% Propylene Glycol/40% Propylene Carbonate/20% of a 5% Sucrose clear solution resulting in a concentration of 2 mg/mL and administered to mice (10 mg/kg) as a single oral dose via gavage. Blood samples were collected at 0.25, 0.5, 1, 2, 4, 8, 12, 16, 20 and 24 hours post dose by cardiac puncture under isoflurane anesthesia. The blood was collected in tubes containing Li-Heparin. The blood samples were kept on ice until centrifugation within approximately 30 minutes of collection. The plasma was transferred into labeled polypropylene tubes and frozen at −70° C. until analyzed by LC/MS/MS.
Plasma samples at each timepoint were analyzed using a LC-MS/MS with a lower limit of quantification (LLOQ) of 1 ng/mL. Plasma was analyzed to determine the amount of the compound of the invention in each sample and regression curves generated for each compounds of the invention in the relevant matrixes.
WinNonlin analysis was used for calculating PK parameters for both the IV and PO administrations:
PK parameters for IV portion—AUClast; AUCINF; T1/2; Cl; Vss; Cmax; MRT
PK parameters for PO portion—AUClast; AUCINF; T1/2; Cmax; Cl, MRT.
In addition to the above PK parameters, bioavailability (% F) was calculated.

[3] = single oral dose of 10 mg/kg at 24 h prior to assessment

SMILES | decrease of eosinophil infiltration in BAL [1] | bioavailability [2] | decrease of AUC for Penh ([1]; single IV dose of 10 mg/kg at 24 h prior to assessment) | decrease of AUC for Penh [1, 3] | decrease of eosinophil infiltration into BALF [1, 3]
O=C(O)c1ccc(-c2c(C(F)(F)F)oc3cc(O)ccc3c2=O)c(F)c1 [IV-38] | 36 % of vehicle control | > 9% |  |  | 
O=c1c(-c2ccc(-c3nnn[nH]3)cc2)c(C(F)(F)F)oc2cc(O)ccc12 [IV-23] |  | > 9% | 39 % of vehicle control |  | 
O=C(O)c1ccc(-c2ccc3cc(O)ccc3c2)c(F)c1 [III-2] | 44 % of vehicle control | > 9% |  |  | 
O=c1c2ccc(O)cc2oc(C(F)(F)F)c1[C@H]1CC[C@H](C(=O)O)CC1 [IV-25] | 12 % of vehicle control | > 9% |  | 43 % of vehicle control | 42 % of vehicle control
O=c1[nH]c(-c2ccc(-c3c(C(F)(F)F)oc4cc(O)ccc4c3=O)cc2)no1 [IV-31] |  | > 9% |  | 18 % of vehicle control | 82 % of vehicle control
